Reference: patent publication US9675596B2, “1,2,4-thiazolidin-3-one derivatives and their use in the treatment of cancer” (Baltic Bio AB, priority 2009, dated 2017)

Legend:
PC-3 cells = assay: Cell proliferation assay (BrdU incorporation); format: cell-based; settings: Homo sapiens, serum-free, 0.6 μM, relative to vehicle control (1 unit), 18 h + 6 h BrdU, read-out: Units of BrdU incorporation
Experimental: PC-3 cancer cell lines were propagated in D-MEM (Gibco 21885) supplemented with 10% Foetal calf serum. 15000 cells per well were seeded in 96 well plates and incubated overnight. The culture media was changed to serum-free D-MEM for 24 h. The culture media was then changed to serum free D-MEM containing either 0.2% DMSO as vehicle control or 0.3, 0.6, 1.2 or 2.5 μM (or 1.25, 2.5, 5, 10 μM (as indicated in Table 1 below)) of the selected compounds of Example 1 to Example 8 in 0.2% DMSO in quadruplicate. After 18 h incubation, BrdU was added according to manufacturer's recommendations. After 6 h incubation in the presence of BrdU, the culture media was removed and BrdU incorporation was measured using “Cell Proliferation ELISA, BrdU colorimetric” Roche (11647229001) according to manufacturer's recommendations.
Proliferation rate of PC-3 cells are reduced by relevant concentrations of the test compounds as measured by BrdU incorporation.

AMPK = assay: Activation of AMPK: Western blot of AMPK (Thr172) phosphorylation in PC3 cells; format: cell-based, human; settings: PC3 cells starved 24 h serum-free; 0.3, 0.6, 1.2 and 2.5 μM for 4 h
Experimental: After starvation of PC3 cells in serum-free medium for 24 h, 0.3, 0.6, 1.2 and 2.5 μM of the compound of Example 1 or the compound of Example 2c was added and incubated for an additional 4 h. The Figure provides representative immunoblots of AMPK phosphorylation by the compound of Example 1 or the compound of Example 2c.
After starvation of PC3 cells in serum-free medium for 16 h, 1 and 5 μM of the selected compounds were added and incubated for an additional 4 h. The Figure provides representative immunoblots of the total level of AMPK (Pan-AMPK) and the level of AMPK and acetyl-CoA carboxylase phosphorylation by the selected compounds of the examples. The selected compounds of the examples stimulate AMPK phosphorylation in PC3 cells and induce the phosphorylation of acetyl-CoA carboxylase.
Selected compounds of Examples 1, 4 to 6 and 8 were prepared. A stock solution of […] was prepared by dissolving the compound in 100% DMSO.
Human PC3 cells were purchased from LGC Promochem-ATCC (ATCC catalog no CRL-1435). […]
PC3 cells were lysed in buffer (100 mM TRIS pH 6.8, 2% w/v Sodium dodecylsulfate (SDS), 10 mM NaF, 10 mM 3-glycerophosphate, 1 mM Na Vanadate). […] Protein concentrations of the lysates were measured using a BCA protein assay kit (Pierce #23225). […]

PP2C-α1 = target: T1, PP2C-α1 (Homo sapiens, UniProt P35813); assay: Dephosphorylation of PP2C assay (PP2C-α1 mediated dephosphorylation of AMPK trimer); format: biochemical; settings: 2.5, 5 and 10 μM; AMPK trimer α1/β1/γ1, 20 min, 30° C.
T1 construct: purchased Abcam (PP2C-α1); Invitrogen (AMPK trimer) Ab51205; PV4672
T1 sequence (P35813 1-382): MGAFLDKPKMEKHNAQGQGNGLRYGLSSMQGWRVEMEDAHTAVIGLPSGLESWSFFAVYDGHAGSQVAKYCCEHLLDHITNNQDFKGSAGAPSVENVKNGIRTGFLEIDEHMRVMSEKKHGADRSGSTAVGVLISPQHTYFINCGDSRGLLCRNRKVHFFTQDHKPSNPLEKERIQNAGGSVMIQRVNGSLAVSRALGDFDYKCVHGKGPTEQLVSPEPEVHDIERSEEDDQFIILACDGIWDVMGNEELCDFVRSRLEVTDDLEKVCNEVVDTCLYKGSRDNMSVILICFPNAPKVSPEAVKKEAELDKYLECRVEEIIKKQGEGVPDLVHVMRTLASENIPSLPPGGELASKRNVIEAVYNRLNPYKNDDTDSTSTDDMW
Experimental: The compounds were tested in the assay at concentrations of 2.5, 5 and 10 μM (as depicted in the figure).
Hyperphosphosporylated AMPK trimer 10 (ng) (α1/β1/γ1) from Invitrogen (PV4672) was incubated in a buffer containing: 40 mM Hepes pH 7.45, 2 mM MnCl2, 0.5 mM DTT and 0.125 ng recombinant PP2C-α1 (Abcam Ab51205) in the presence or absence of potential inhibitors of the interaction/enzymatic reaction in at total volume of 10 μL for 20 minutes in 30° C. The reaction was terminated by addition of 40 μL stop solution containing 1% Bovine Serum Albumin (BSA), 10 mM EDTA and anti Phospho-AMPKα (Thr172) Antibody (cell signaling #2531) at a dilution of 1/1000. The samples were transferred to glutathione coated 96 well plated (Pierce #15140) and incubated O/N at +4° C. The plate was washed 3×200 μL in PBS/0.05% Triton X-100. The plate was incubated with PBS/1% BSA and horse radish peroxidase conjugated goat-anti rabbit antibody (Jackson immunoresearch Laboratories Inc. #111-035-003) at a dilution of 1/10 000 for 2 h in room temperature. The plate was washed 3×200 μL in PBS/0.05% Triton X-100. The assay was developed by addition of 100 μL Liquid Substrate System for ELISA (Sigma, T0440) for 5-30 min. The developing reaction was terminated by addition of 25 μL […]. Absorbance was measured at 450 nm, where absorbance correlates to amount p-T172 AMPK.

Compound	activity at 0.6 µM (PC-3 cells)	AMPK phosphorylation (immunoblot, FIG. 1) (AMPK)	PP2C-α1 mediated dephosphorylation of AMPK (FIG. 3) (PP2C-α1)
O=c1[nH]s/c(=N\c2ccc(Cl)c(Cl)c2)n1Cc1cccc(C(F)(F)F)c1 [Example 1, 5-(3,4-dichlorophenyl)imino-4-[[3-(trifluoromethyl)phenyl]methyl]-1,2,4-thiadiazolidin-3-one]	39%	stimulates AMPK phosphorylation	reduce PP2C-α1 mediated dephosphorylation of AMPK
O=c1[nH]s/c(=N\c2ccc(Cl)c(Cl)c2)n1Cc1ccc(F)c(F)c1 [Example 2c, 5-(3,4-dichlorophenyl)imino-4-[(3,4-difluorophenyl)methyl]-1,2,4-thiadiazolidin-3-one]	34%	stimulates AMPK phosphorylation	reduce PP2C-α1 mediated dephosphorylation of AMPK
